Here are results for 4 compounds from article PMC4413848, “Antibacterial activity of alkyl gallates is a combination of direct targeting of FtsZ and permeabilization of bacterial membranes” (Frontiers in Microbiology, 2015).

In test [1] the target is T1, FtsZ (Bacillus subtilis, UniProt P17865).
T1 sequence (P17865 1-382): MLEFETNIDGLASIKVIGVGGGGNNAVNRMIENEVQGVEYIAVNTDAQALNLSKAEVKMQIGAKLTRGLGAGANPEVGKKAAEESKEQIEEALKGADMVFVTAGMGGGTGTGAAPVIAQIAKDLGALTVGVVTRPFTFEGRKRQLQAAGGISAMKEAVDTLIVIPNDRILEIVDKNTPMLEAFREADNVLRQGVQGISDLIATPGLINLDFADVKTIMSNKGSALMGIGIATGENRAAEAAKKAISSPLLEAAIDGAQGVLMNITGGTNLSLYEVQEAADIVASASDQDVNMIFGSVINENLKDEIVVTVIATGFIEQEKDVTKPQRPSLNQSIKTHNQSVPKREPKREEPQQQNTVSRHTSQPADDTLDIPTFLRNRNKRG
As to the kind of experiment: fluorescence titration with purified FtsZ (poorer fit, R^[…] = […]); also GTPase inhibition and sedimentation. It counts as binding.

Test [2] addresses T1, FtsZ. As to the kind of experiment: malachite green GTPase assay at […] with Triton X-100 (Kd could not be calculated). It counts as biochemical.
The target of test [3] is T1, FtsZ. The experiment in a line: fluorescence titration (intrinsic alkyl gallate fluorescence) with purified FtsZ; also GTPase inhibition and sedimentation. Type of test: binding.

On FtsZ [1], `CCCCCOC(=O)c1cc(O)c(O)c(O)c1` [compound 8, Pentyl gallate] showed a Kd of approximately 3.1 µM.

Regarding `CCCCCCOC(=O)c1cc(O)c(O)c(O)c1` [compound 9, Hexyl gallate], the “malachite green GTPase assay at 50 μg/mL with Triton X-100 (Kd could not be calc)” value at FtsZ [2] is “All of the compounds showed similar levels of inhibition of the GTPase activity of FtsZ”.

In the case of `CCCCCCCOC(=O)c1cc(O)c(O)c(O)c1` [compound 10, Heptyl gallate], binding at FtsZ [3] was put at a Kd of 80 ± 30 nM.

In turn, `CCCCCCCCOC(=O)c1cc(O)c(O)c(O)c1` [compound 11, Octyl gallate] had a Kd at FtsZ [3] of 840 ± 220 nM.

A word on the Kd: it is a measure of binding affinity in units of concentration. Low readings indicate a tighter complex, high ones a looser complex.
